Experimental data taken from US20220313651A1, “INHIBITORS OF ZIKA VIRUS INFECTION” (priority 2019, published 2022).

Test system: ZIKV human strain PAN2016
Assay: ZIKV PAN2016 infection of Ifnar1-/- mice: tissue viral titers, immunofluorescence
Format: in vivo
Conditions: 20 mg/kg i.p., 5 dpi
From the text: FIG. 8A is a schematic diagram of experimental procedures. […] The treated mice were infected with ZIKV human strain R103451 (200 plaque forming unit (PFU)/mouse), followed by evaluation of survival rate (FIG. 8B) or weight changes (FIG. 8C) for 21 days. The data are expressed as mean±s.e.m. of mice in each group (n=6). In a separate experiment, ST087010 or gossypol-treated mice were infected with ZIKV human strain PAN2016 (200, PFU/mouse). Five days post-infection (dpi), viral titers were detected in tissues by plaque assay (FIG. 8D), and ZIKV or caspase-3 signals were measured in eye (FIG. 8E) and testis ([…]) tissues by immunofluorescence staining. The data are expressed as mean±s.e.m. of mice in each group (n=5), and significant differences among different groups are shown as *, **, and ***. The detection limit is 25 PFU/g. ZIKV and caspase-3 (in FIG. 8E-F) were stained with anti-ZIKV and anti-active caspase-3 antibodies, respectively. Nuclei were stained with DAPI (40,6-diamidino-2-phenylindole). Representative images of immunofluorescence staining are shown. Magnification, 63×, and scale bar, 10 μm.
ST087010 was evaluated for protection against ZIKV infection in ZIKV-susceptible Ifnar1^−/− mice. Briefly, 7-8-week-old male mice were used, and two separate experiments were performed. […] These mice were infected by i.p. injection with ZIKV (human strain R103451, 200 PFU/mouse), and observed daily for weight changes and survival until 21 days post-infection (dpi). […]
Plaque assay was used to detect viral titers in ZIKV-infected tissues. […] ZIKV titers in tissues were measured from ˜40 mg of samples, and thus the detection limit is about 25 PFU/g of tissues.
Immunofluorescence staining was carried out to detect ZIKV and caspase-3 signals in ZIKV-infected mouse tissues. […] The slides were analyzed using a confocal microscope (Zeiss LSM 880) and ZEN software, and fluorescent signals were quantified by ImageJ software. […]

## Cc1cc2c(C(C)C)c(O)c(O)c(/C=N/n3c(=O)[nH][nH]c3=O)c2c(O)c1-c1c(C)cc2c(C(C)C)c(O)c(O)c(/C=N/n3c(=O)[nH][nH]c3=O)c2c1O [ST087010]
ZIKV PAN2016 200 PFU/mouse, heart, testis, eye, kidney, brain
  Viral titers in tissues (plaque assay): significantly reduced viral titers
ZIKV PAN2016, immunofluorescence
  ZIKV+ signals in eye and testis tissues: undetectable
ZIKV PAN2016, immunofluorescence, vs DMSO
  Caspase-3 staining in eye and testis tissues: undetectable or diminished staining
